Experimental data reported in ChEMBL document CHEMBL4715865, “Antimyeloma Potential of Caffeic Acid Phenethyl Ester and Its Analogues through Sp1 Mediated Downregulation of IKZF1-IRF4-MYC Axis” (J Nat Prod, 2020).
Active and inactive are the calls of the source. No cut-off for these calls is given here.

Columns and labels:
KMM-1 [1] = assay: (§1) Growth inhibition of human KMM-1 cells at 10 uM after 48 hrs by PrestoBlue cell viability assay relative to control; type: functional
[2] = Induction of apoptosis in human MM1.R cells assessed as apoptotic cells at 10 uM after 72 hrs by Annexin V/PropidiumIodide staining based flow cytometric analysis relative to control; type: functional, MM.1R
KMM-1 [3] = assay: Growth inhibition of human KMM-1 cells at 0.001 to 50 uM after 48 hrs by PrestoBlue cell viability assay; type: functional, cell-based; settings: dose 0.001-50 µM
[4] = Induction of apoptosis in human KMM-1 cells assessed as apoptotic cells at 10 uM after 72 hrs by Annexin V/PropidiumIodide staining based flow cytometric analysis relative to control; type: functional
MM.1R [5] = assay: Down regulation of SP1 protein expression in human MM1.R cells at 10 uM after 48 hrs by immunoblotting analysis; type: functional, cell-based
[6] = Growth inhibition of human KMM-1 cells at 25 uM after 48 hrs by PrestoBlue cell viability assay relative to control; type: functional; settings: read-out: GI
[7] = Induction of apoptosis in human KMM-1 cells assessed as necrotic cells at 10 uM after 72 hrs by Annexin V/PropidiumIodide staining based flow cytometric analysis (reference value: 8 +/-1%); type: functional
JJN-3 [8] = assay: Down regulation of SP1 protein expression in human JJN-3 cells at 10 uM after 48 hrs by immunoblotting analysis; type: functional, cell-based
A549 = assay: Cytotoxicity against human A549 cells assessed as reduction in cell viability after 48 hrs by MTT assay; type: functional, cell-based; settings: A549, 48 h
[9] = Growth inhibition of human MM1.R cells after 48 hrs by PrestoBlue cell viability assay; type: functional; settings: MM.1R
[10] = Induction of apoptosis in human KMM-1 cells assessed as viable cells at 10 uM after 72 hrs by Annexin V/PropidiumIodide staining based flow cytometric analysis (reference value: 87 +/- 1%); type: functional; settings: read-out: Activity
[11] = Down regulation of IRF4 protein expression in human KMM-1 cells at 50 uM incubated for 48 hrs by 48 hrs by immunoblotting analysis relative to control; type: functional
[12] = Induction of apoptosis in human KMM-1 cells assessed as viable cells at 25 uM after 72 hrs by Annexin V/PropidiumIodide staining based flow cytometric analysis (reference value: 87 +/- 1%); type: functional; settings: read-out: Activity
KMM-1 [13] = assay: Growth inhibition of human KMM-1 cells at 1 to 100 uM after 72 hrs by PrestoBlue cell viability assay; type: functional, cell-based; settings: dose 1-100 µM
[14] = Induction of apoptosis in human KMM-1 cells assessed as early apoptotic cells at 25 uM after 72 hrs by Annexin V/PropidiumIodide staining based flow cytometric analysis (reference value: 1 +/- 0.4%); type: functional
[15] = Induction of apoptosis in human KMM-1 cells assessed as late apoptotic cells at 25 uM after 72 hrs by Annexin V/PropidiumIodide staining based flow cytometric analysis (reference value: 4 +/- 0.5%); type: functional
[16] = Induction of apoptosis in human KMM-1 cells assessed as necrotic cells at 25 uM after 72 hrs by Annexin V/PropidiumIodide staining based flow cytometric analysis (reference value: 8 +/-1%); type: functional
[17] = Induction of apoptosis in human KMM-1 cells assessed as late apoptotic cells at 10 uM after 72 hrs by Annexin V/PropidiumIodide staining based flow cytometric analysis (reference value: 4 +/- 0.5%); type: functional
KMM-1 [18] = assay: Down regulation of IRF4 mRNA expression in human KMM-1 cells at 50 uM incubated for 48 hrs by 48 hrs by RT-PCR analysis; type: functional, cell-based
[19] = Growth inhibition of human KMM-1 cells at 50 uM after 48 hrs by PrestoBlue cell viability assay relative to control; type: functional; settings: read-out: GI
KMM-1 [20] = assay: Growth inhibition of human KMM-1 cells assessed as induction morphological changes at 25 to 50 uM after 48 hrs by phase contrast microscopic method; type: functional, cell-based; settings: dose 25-50 µM
JJN-3 [21] = assay: Growth inhibition of human JJN-3 cells after 48 hrs by PrestoBlue cell viability assay; type: functional, cell-based; settings: JJN-3, 48 h
[22] = Induction of apoptosis in human KMM-1 cells assessed as early apoptotic cells at 10 uM after 72 hrs by Annexin V/PropidiumIodide staining based flow cytometric analysis (reference value: 1 +/- 0.4%); type: functional
[23] = Cytotoxicity against human Mononuclear cells assessed as reduction in cll viability at 25 to 50 uM after 48 hrs by PrestoBlue cell viability assay; type: cell-based; settings: mononuclear cell line, dose 25-50 µM
B cell = assay: Cytotoxicity against human naive B cells assessed as reduction in cll viability at 25 to 50 uM after 48 hrs by PrestoBlue cell viability assay; type: cell-based; settings: dose 25-50 µM
[24] = Growth inhibition of human KMM-1 cells after 48 hrs by PrestoBlue cell viability assay; type: functional, cell-based; settings: KMM-1, 48 h
MM.1R [25] = assay: Induction of apoptosis in human MM1.R cells assessed as increase in cleaved caspace-8 protein expression at 5 to 25 uM after 48 hrs by immunoblotting analysis; type: functional, cell-based; settings: dose 5-25 µM
IMR-32 = assay: Cytotoxicity against human IMR-32 cells assessed as reduction in cell viability after 48 hrs by MTT assay; type: functional, cell-based; settings: IMR-32, 48 h
KMM-1 [26] = assay: Growth inhibition of human KMM-1 cells at 1 to 10 uM after 48 hrs by PrestoBlue cell viability assay; type: functional, cell-based; settings: dose 1-10 µM
JJN-3 [27] = assay: Down regulation of IRF4 protein expression in human JJN-3 cells at 10 to 100 uM after 48 hrs in presence of TMP by immunoblotting analysis; type: functional, cell-based; settings: dose 10-100 µM
[28] = as §1; type: functional; settings: read-out: GI
JJN-3 [29] = assay: Down regulation of IKZF1 protein expression in human JJN-3 cells at 10 to 100 uM after 48 hrs in presence of TMP by immunoblotting analysis; type: functional, cell-based; settings: dose 10-100 µM
MM.1R [30] = assay: Down regulation of IKZF3 protein expression in human MM1.R cells at 5 to 10 uM after 48 hrs by immunoblotting analysis; type: functional, cell-based; settings: dose 5-10 µM
JJN-3 [31] = assay: Induction of apoptosis in human JJN-3 cells assessed as increase in cleaved caspace-8 protein expression at 10 to 50 uM after 48 hrs by […]; type: functional, cell-based; settings: dose 10-50 µM
MM.1R [32] = assay: Induction of apoptosis in human MM1.R cells assessed as increase in cleaved caspace-8 protein expression at 10 uM after 48 hrs by immunoblotting analysis; type: functional, cell-based
MM.1R [33] = assay: Induction of apoptosis in human MM1.R cells at 10 uM after 48 hrs by Annexin V/Propidium Iodide flow cytometric analysis; type: functional, cell-based
[34] = Potency index, ratio of lenalidomide IC50 to test compound IC50 for growth inhibition of human KMM-1 cells; type: functional
MM.1R [35] = assay: Down regulation of MYC protein expression in human MM1.R cells at 5 to 10 uM after 48 hrs by immunoblotting analysis; type: functional, cell-based; settings: dose 5-10 µM
MM.1R [36] = assay: Down regulation of IKZF1 protein expression in human MM1.R cells at 5 to 10 uM after 48 hrs by immunoblotting analysis; type: functional, cell-based; settings: dose 5-10 µM
KMM-1 [37] = assay: Down regulation of cyclin D3 expression in human KMM-1 cells at 5 to 50 uM after 48 hrs by immunoblotting analysis; type: functional, cell-based; settings: dose 5-50 µM
KMM-1 [38] = assay: Down regulation of cyclin D3 expression in human KMM-1 cells after 48 hrs by immunoblotting analysis; type: functional, cell-based; settings: dose 5-50 µM
KMM-1 [39] = assay: Down regulation of OCT2 protein expression in human KMM-1 cells at 50 uM after 48 hrs by immunoblotting analysis; type: functional, cell-based
JJN-3 [40] = assay: Down regulation of IKZF1 protein expression in human JJN-3 cells at 50 uM after 48 hrs by immunoblotting analysis; type: functional, cell-based
KMM-1 [41] = assay: Down regulation of Bob-1 protein expression in human KMM-1 cells at 50 uM after 48 hrs by immunoblotting analysis; type: functional, cell-based
MM.1R [42] = assay: Down regulation of SP1 protein expression in human MM1.R cells at 25 uM after 48 hrs by immunoblotting analysis; type: functional, cell-based
JJN-3 [43] = assay: Down regulation of SP1 protein expression in human JJN-3 cells at 25 uM after 48 hrs by immunoblotting analysis; type: functional, cell-based
[44] = Induction of apoptosis in human KMM-1 cells assessed as increase in cleaved caspace-3 expression at 50 uM after 48 hrs by immunoblotting analysis; type: functional
JJN-3 [45] = assay: Down regulation of IRF4 protein expression in human JJN-3 cells at 50 uM after 48 hrs by immunoblotting analysis; type: functional, cell-based

COc1cc(/C=C/C(=O)OCCc2ccccc2)cc(OC)c1O
growth inhibition (GI) (KMM-1 [1]): inactive

Nc1cccc2c1C(=O)N(C1CCC(=O)NC1=O)C2=O (configuration not stated) [POMALIDOMIDE]
Activity [2]: 43% | growth inhibition (GI) (KMM-1 [3]): inactive | Activity [4]: 18.4%

O=C(/C=C/c1ccc(O)c(O)c1)OCCc1ccccc1 [CAFFEIC ACID PHENETHYL ESTER]
Activity (MM.1R [5]): Active | inhibition of growth at 25 µM [6]: 38.7% | Activity [7]: 17% | Activity (JJN-3 [8]): Active | IC50 (A549): 80 µM | IC50 [9]: 17.8 µM | viability at 10 µM [10]: 71% | Activity [11]: 26% | viability at 25 µM [12]: 51% | growth inhibition (GI) (KMM-1 [13]): Active | Activity [14]: 4% | Activity [15]: 15% | Activity [16]: 31% | Activity [17]: 9% | Activity (KMM-1 [18]): Active | Activity [2]: 41% | inhibition of growth at 50 µM [19]: 59% | growth inhibition (GI) (KMM-1 [20]): Active | IC50 (JJN-3 [21]): 30 µM | Activity [22]: 3% | Activity [23]: Non-Toxic | Activity (B cell): Non-Toxic | IC50 [24]: 37.5 µM | Activity (MM.1R [25]): Active | IC50 (IMR-32): 5 µM | growth inhibition (GI) (KMM-1 [26]): Active | Activity [4]: 25.8%

O=C(/C=C/c1cc(O)ccc1O)OCCCc1ccccc1
Activity (MM.1R [5]): Active | Activity (JJN-3 [27]): Active | inhibition of growth at 10 µM [28]: 89.7% | Activity (JJN-3 [8]): Active | Activity (JJN-3 [29]): Active | IC50 [9]: 0.6 µM | Activity (MM.1R [30]): Active | Activity [2]: 54% | Activity (JJN-3 [31]): Active | Activity (MM.1R [32]): Active | Activity (MM.1R [33]): Active | IC50 (JJN-3 [21]): 3.9 µM | Ratio IC50 [34]: 12 | Activity (MM.1R [35]): Active | IC50 [24]: 1.9 µM | Activity (MM.1R [36]): Active | Activity [4]: 64.5%

O=C(/C=C/c1ccc(O)c(O)c1)NCCc1ccccc1
Activity (KMM-1 [37]): inactive | growth inhibition (GI) (KMM-1 [26]): Active

COc1cc(/C=C/C(=O)OCCc2ccccc2)ccc1O
growth inhibition (GI) (KMM-1 [1]): inactive

O=C(/C=C/c1ccc(O)c(O)c1)OCCCc1ccccc1
inhibition of growth at 25 µM [6]: 58.3% | Activity [7]: 27% | Activity (KMM-1 [38]): Dose-dependent effect | Activity (KMM-1 [39]): Active | inhibition of growth at 10 µM [28]: 28% | IC50 [9]: 4.9 µM | viability at 10 µM [10]: 55% | Activity [11]: 62% | viability at 25 µM [12]: 32% | Activity (JJN-3 [40]): Active | Activity (KMM-1 [41]): Active | growth inhibition (GI) (KMM-1 [13]): Active | Activity [14]: 7% | Activity [15]: 17.2% | Activity [16]: 43% | Activity [17]: 14% | Activity (MM.1R [42]): Active | Activity (JJN-3 [43]): Active | Activity (KMM-1 [18]): Active | Activity [2]: 30% | inhibition of growth at 50 µM [19]: 80% | fold change (FC) [44]: 2.9 | Activity (JJN-3 [45]): Active | Activity (MM.1R [33]): Active | IC50 (JJN-3 [21]): 6.7 µM | Activity [22]: 4% | Activity [23]: Non-Toxic | Activity (B cell): Non-Toxic | IC50 [24]: 12 µM | Activity (MM.1R [25]): Active | Activity [4]: 40.4%
